Source: PubChem BioAssay (NCI)
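All cell lines were grown in 96-well plates and treated with compound for 48 hours. The concentration for 50% growth inhibition is given as GI50. TGI marks complete inhibition of growth.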

Key:
Assay in all cases: inhibition of tumour cell growth, NCI panel, 48 h
NCI-H23 lung = test system: NCI-H23 lung
NCI/ADR-RES ovarian = test system: NCI/ADR-RES ovarian
SN12C renal = test system: SN12C renal
SK-MEL-2 melanoma = test system: SK-MEL-2 melanoma
MDA-MB-231 breast = test system: MDA-MB-231 breast
LOX IMVI melanoma = test system: LOX IMVI melanoma
OVCAR-4 ovarian = test system: OVCAR-4 ovarian
DU-145 prostate = test system: DU-145 prostate
SK-MEL-28 melanoma = test system: SK-MEL-28 melanoma
SR leukemia = test system: SR leukemia
HS 578T breast = test system: HS 578T breast
HCT-15 colon = test system: HCT-15 colon
SF-268 CNS = test system: SF-268 CNS
HCC-2998 colon = test system: HCC-2998 colon
MOLT-4 leukemia = test system: MOLT-4 leukemia
OVCAR-5 ovarian = test system: OVCAR-5 ovarian
RPMI-8226 leukemia = test system: RPMI-8226 leukemia
OVCAR-8 ovarian = test system: OVCAR-8 ovarian
MALME-3M melanoma = test system: MALME-3M melanoma
UACC-62 melanoma = test system: UACC-62 melanoma
IGROV1 ovarian = test system: IGROV1 ovarian
SF-295 CNS = test system: SF-295 CNS
NCI-H226 lung = test system: NCI-H226 lung
RXF 393 renal = test system: RXF 393 renal
SF-539 CNS = test system: SF-539 CNS
KM12 colon = test system: KM12 colon
MDA-MB-435 = test system: MDA-MB-435
SW-620 colon = test system: SW-620 colon
HOP-92 NSCLC = test system: HOP-92 NSCLC
NCI-H460 lung = test system: NCI-H460 lung
SNB-75 CNS = test system: SNB-75 CNS
BT-549 breast = test system: BT-549 breast
A549 NSCLC = test system: A549 NSCLC
OVCAR-3 ovarian = test system: OVCAR-3 ovarian
EKVX NSCLC = test system: EKVX NSCLC
K-562 leukemia = test system: K-562 leukemia
TK-10 renal = test system: TK-10 renal
SK-MEL-5 melanoma = test system: SK-MEL-5 melanoma
SK-OV-3 ovarian = test system: SK-OV-3 ovarian
U251 CNS = test system: U251 CNS
M14 melanoma = test system: M14 melanoma
786-0 renal = test system: 786-0 renal
MCF7 breast = test system: MCF7 breast
COLO 205 colon = test system: COLO 205 colon
SNB-19 CNS = test system: SNB-19 CNS
CCRF-CEM leukemia = test system: CCRF-CEM leukemia
UACC-257 melanoma = test system: UACC-257 melanoma
CAKI-1 renal = test system: CAKI-1 renal
HCT-116 colon = test system: HCT-116 colon
ACHN renal = test system: ACHN renal
NCI-H522 lung = test system: NCI-H522 lung
HT29 colon = test system: HT29 colon
T-47D breast = test system: T-47D breast
A498 renal = test system: A498 renal
UO-31 renal = test system: UO-31 renal
HOP-62 NSCLC = test system: HOP-62 NSCLC
PC-3 prostate = test system: PC-3 prostate

Compound `CCc1c(Oc2ccc(C(C)=O)cc2)c2ccccc2[nH]c1=O` has a GI50 (NCI-H23 lung) of 18.7 µM, a TGI (NCI-H23 lung) of 59.5 µM and a GI50 (NCI/ADR-RES ovarian) of 23 µM. For the same compound, the TGI (NCI/ADR-RES ovarian) was over 74 µM, the GI50 (SN12C renal) was 16.6 µM and the TGI (SN12C renal) was 61.8 µM. It also gave a GI50 (SK-MEL-2 melanoma) of 59.5 µM, a TGI (SK-MEL-2 melanoma) of over 100 µM and a GI50 (MDA-MB-231 breast) of 7.03 µM. For the same compound, the TGI (MDA-MB-231 breast) was 39.1 µM, the GI50 (LOX IMVI melanoma) was 17.3 µM and the TGI (LOX IMVI melanoma) was 46.2 µM. For the same compound, the GI50 (OVCAR-4 ovarian) was 70 µM, the TGI (OVCAR-4 ovarian) was over 100 µM and the GI50 (DU-145 prostate) was 25.4 µM. The TGI (DU-145 prostate) was 73.6 µM, the GI50 (SK-MEL-28 melanoma) was 50.7 µM and the TGI (SK-MEL-28 melanoma) was over 100 µM. For the same compound, the GI50 (SR leukemia) was 9.09 µM, the TGI (SR leukemia) was over 100 µM and the GI50 (HS 578T breast) was 4.3 µM. The TGI (HS 578T breast) was 43.6 µM, the GI50 (HCT-15 colon) was 16.4 µM and the TGI (HCT-15 colon) was 96.8 µM. For the same compound, the GI50 (SF-268 CNS) was 18.1 µM, the TGI (SF-268 CNS) was 61 µM and the GI50 (HCC-2998 colon) was 14.3 µM. For the same compound, the TGI (HCC-2998 colon) was 30 µM, the GI50 (MOLT-4 leukemia) was 28 µM and the TGI (MOLT-4 leukemia) was over 100 µM. For the same compound, the GI50 (OVCAR-5 ovarian) was 31.8 µM, the TGI (OVCAR-5 ovarian) was over 100 µM and the GI50 (RPMI-8226 leukemia) was 3.65 µM. For the same compound, the TGI (RPMI-8226 leukemia) was over 42.5 µM, the GI50 (OVCAR-8 ovarian) was 19.1 µM and the TGI (OVCAR-8 ovarian) was 53.4 µM. The GI50 (MALME-3M melanoma) was 9.09 µM, the TGI (MALME-3M melanoma) was 42.3 µM and the GI50 (UACC-62 melanoma) was 3.74 µM. It also gave a TGI (UACC-62 melanoma) of 16.5 µM, a GI50 (IGROV1 ovarian) of 28.8 µM and a TGI (IGROV1 ovarian) of over 100 µM. For the same compound, the GI50 (SF-295 CNS) was 16.3 µM, the TGI (SF-295 CNS) was over 69.4 µM and the GI50 (NCI-H226 lung) was 2.8 µM. The TGI (NCI-H226 lung) was 43.9 µM, the GI50 (RXF 393 renal) was 20.1 µM and the TGI (RXF 393 renal) was 45.7 µM. It also gave a GI50 (SF-539 CNS) of 15.7 µM, a TGI (SF-539 CNS) of 38.6 µM and a GI50 (KM12 colon) of 18.6 µM. For the same compound, the TGI (KM12 colon) was over 60.9 µM, the GI50 (MDA-MB-435) was 16.5 µM and the TGI (MDA-MB-435) was over 100 µM. For the same compound, the GI50 (SW-620 colon) was 22.2 µM, the TGI (SW-620 colon) was 67.4 µM and the GI50 (HOP-92 NSCLC) was 1.67 µM. For the same compound, the TGI (HOP-92 NSCLC) was 11.7 µM, the GI50 (NCI-H460 lung) was 18.7 µM and the TGI (NCI-H460 lung) was 65.7 µM. It also gave a GI50 (SNB-75 CNS) of over 26.9 µM, a TGI (SNB-75 CNS) of over 100 µM and a GI50 (BT-549 breast) of 17.6 µM. It also gave a TGI (BT-549 breast) of 70.8 µM, a GI50 (A549 NSCLC) of 18.5 µM and a TGI (A549 NSCLC) of 59.5 µM. It also gave a GI50 (OVCAR-3 ovarian) of 26 µM, a TGI (OVCAR-3 ovarian) of 80.9 µM and a GI50 (EKVX NSCLC) of 9.65 µM. The TGI (EKVX NSCLC) was over 66 µM, the GI50 (K-562 leukemia) was 18.8 µM and the TGI (K-562 leukemia) was over 76.9 µM. It also gave a GI50 (TK-10 renal) of 7.03 µM, a TGI (TK-10 renal) of 28.6 µM and a GI50 (SK-MEL-5 melanoma) of 13 µM. The TGI (SK-MEL-5 melanoma) was 27.5 µM, the GI50 (SK-OV-3 ovarian) was 21 µM and the TGI (SK-OV-3 ovarian) was 74.5 µM. It also gave a GI50 (U251 CNS) of 19.2 µM, a TGI (U251 CNS) of over 82 µM and a GI50 (M14 melanoma) of 18.5 µM. It also gave a TGI (M14 melanoma) of 65.9 µM, a GI50 (786-0 renal) of 21.7 µM and a TGI (786-0 renal) of over 72.1 µM. It also gave a GI50 (MCF7 breast) of 10.5 µM, a TGI (MCF7 breast) of over 71.7 µM and a GI50 (COLO 205 colon) of 13.7 µM. It also gave a TGI (COLO 205 colon) of 40.7 µM, a GI50 (SNB-19 CNS) of 30.7 µM and a TGI (SNB-19 CNS) of over 100 µM. For the same compound, the TGI (CCRF-CEM leukemia) was over 43.6 µM, the GI50 (UACC-257 melanoma) was 14.5 µM and the TGI (UACC-257 melanoma) was 55.1 µM. The GI50 (CAKI-1 renal) was 15.8 µM, the TGI (CAKI-1 renal) was 53.3 µM and the GI50 (HCT-116 colon) was 18.5 µM. The TGI (HCT-116 colon) was 52.8 µM, the GI50 (ACHN renal) was 16.7 µM and the TGI (ACHN renal) was 63.5 µM. The GI50 (NCI-H522 lung) was 14.1 µM, the TGI (NCI-H522 lung) was over 68.3 µM and the GI50 (HT29 colon) was 26.9 µM. It also gave a TGI (HT29 colon) of over 100 µM, a GI50 (T-47D breast) of 4.07 µM and a TGI (T-47D breast) of 24.6 µM. It also gave a GI50 (A498 renal) of 17.2 µM, a TGI (A498 renal) of 32 µM and a GI50 (UO-31 renal) of 19.5 µM. It also gave a TGI (UO-31 renal) of over 100 µM, a GI50 (HOP-62 NSCLC) of 20.4 µM and a TGI (HOP-62 NSCLC) of 74.3 µM. The GI50 (PC-3 prostate) was 0.97 µM and the TGI (PC-3 prostate) was over 40.8 µM.
